Read-outs that look alike come from different tables or passages of the source. Where no end group is shown, it is not given here.
System: drug-resistant Mycobacterium tuberculosis

Compound | inhibition of the growth of Mycobacterium tuberculosis (drug-resistant, 5 micrograms per ml) [%] | inhibition of the growth of Mycobacterium tuberculosis [%]
CCNC(=O)[C@@H]1CCCN1C(=O)[C@H](CCCN=C(N)N)NC(=O)[C@H](CC(C)C)NC(=O)[C@@H](Cc1c[nH]c2ccccc12)NC(=O)[C@H](Cc1ccc(O)cc1)NC(=O)[C@H](CO)NC(=O)[C@H](Cc1c[nH]c2ccccc12)NC(=O)[C@H](Cc1cnc[nH]1)NC(=O)[C@@H]1CCC(=O)N1 [Peptide 1, Pyr-His-Trp-Ser-Tyr-D-Trp-Leu-Arg-Pro-NHEt] | 100 | –
Ile-Asn-Leu-Lys-Ala-Leu-Ala-Ala-Leu-Ala-Lys-Lys-Ile-Leu-NH2 (INLKALAALAKKIL-NH2) [Peptide 2] | – | 100

— US20100184698A1, “USE OF A […] […] A […] AGENT” (priority 2007, published 2010)
